From patent publication US20190010167A1, “INHIBITORS OF THE MENIN-MLL INTERACTION” (Vitae Pharmaceuticals, Inc., priority 2015, published 2019)

Biological target: T1, wild-type menin / MLL-AF9 fusion protein (Homo sapiens, UniProt O00255)
T1 construct: made in house; host or cells: E. coli (menin); HEK293 cleared lysate (MLL-AF9-FLAG)
T1 sequence (O00255 1-610): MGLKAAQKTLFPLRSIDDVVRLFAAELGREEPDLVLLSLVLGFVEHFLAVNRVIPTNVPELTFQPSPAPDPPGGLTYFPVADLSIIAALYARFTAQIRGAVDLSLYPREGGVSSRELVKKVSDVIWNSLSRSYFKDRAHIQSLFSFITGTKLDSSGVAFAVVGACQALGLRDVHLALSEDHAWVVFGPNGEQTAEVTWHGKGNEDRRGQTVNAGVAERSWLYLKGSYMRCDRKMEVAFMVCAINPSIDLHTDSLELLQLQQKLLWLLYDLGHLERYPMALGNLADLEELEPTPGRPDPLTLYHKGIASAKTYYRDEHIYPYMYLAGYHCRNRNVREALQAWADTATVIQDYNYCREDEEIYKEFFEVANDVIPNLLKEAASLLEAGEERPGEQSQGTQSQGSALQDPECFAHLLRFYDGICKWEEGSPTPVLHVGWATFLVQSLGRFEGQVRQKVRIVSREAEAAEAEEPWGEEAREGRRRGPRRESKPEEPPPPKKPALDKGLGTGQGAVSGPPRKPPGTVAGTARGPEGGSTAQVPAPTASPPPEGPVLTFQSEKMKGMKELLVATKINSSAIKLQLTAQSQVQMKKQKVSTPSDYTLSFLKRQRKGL
Assay: AlphaLISA menin/MLL binding assay, wild-type menin (Assay 1)
Details: biotinylated wild-type menin 5 nM, MLL-AF9-FLAG lysate
Protocol: Potencies of inhibitor compounds against menin/MLL binding were assessed by AlphaLISA assay using biotinylated (1) wild-type menin or (2) mutated menin (described in Nature (2012) Vol. 482, pp. 542-548) and MLL-AF9 fusion protein bearing a FLAG epitope at its C-terminus. Menin proteins were expressed in E. coli and covalently modified with biotin using EZ-Link™ Sulfo-NHS-Biotin (ThermoFisher Cat. No. 21217) according to manufacturer's protocol. MLL1-1,396 fused to AF91-92 and the C-terminal FLAG peptide was expressed in HEK293 cells and used as a lysate cleared at 21,000×g for 10 min.
Compounds (2 μL of solutions in DMSO) were dispensed in white 96-well half-area plates (Corning Cat. No. 3693) and incubated for 30 min at RT with 5 nM biotinylated menin and appropriate amount of MLL-AF9-FLAG lysate in 40 μL of 50 mM Tris-HCl buffer pH 7.4 containing 5% (v/v) DMSO, 50 mM NaCl, 0.01% (w/v) bovine serum albumin (BSA) and 1 mM DTT. To this incubation mixture, 40 μl of AlphaLISA anti-FLAG acceptor (PerkinElmer Cat. No. AL112C) and streptavidin donor (PerkinElmer Cat. No. 6760002) beads (10 μg/mL each) was added and incubation continued at RT for 60 min. Alpha (amplified luminescent proximity homogeneous assay) signal was measured on an Envision multi-label plate reader at the end of the incubation. All steps were conducted under dim fluorescent light.
These percent inhibition values were regressed against compound concentrations in the assay using four parameter logit non-linear curve fitting (XLFit, IDBS). The IC50 values were derived from the curve fitting as inflection points on the dose-response curves and are set out in Table 1 below.

Row | SMILES | IC50 [nM]
1 | FC(F)(F)Cc1cc2c(N3CCC4(CC3)CN(CC3CCOCC3)C4)ncnc2s1 [Example 19, 4-(2-((tetrahydro-2H-pyran-4-yl)methyl)-2,7-diazaspiro[3.5]nonan-7-yl)-6-(2,2,2-trifluoroethyl)thieno[2,3-d]pyrimidine] | 100 to 1000
2 | FC(F)(F)Cc1cc2c(N3CCC4(CC3)CN(CC3CCCOC3)C4)ncnc2s1 (stereo not drawn) [Example 7, 4-(2-((tetrahydro-2H-pyran-3-yl)methyl)-2,7-diazaspiro[3.5]nonan-7-yl)-6-(2,2,2-trifluoroethyl)thieno[2,3-d]pyrimidine] | ≥ 1000
3 | CC(C)CN1CCC2(CC1)CCN(c1ncnc3sc(CC(F)(F)F)cc13)C2 [Example 113, 4-(8-isobutyl-2,8-diazaspiro[4.5]decan-2-yl)-6-(2,2,2-trifluoroethyl)thieno[2,3-d]pyrimidine] | 100 to 1000
4 | Cc1c(CN2CCC3(CCN(c4ncnc5sc(CC(F)(F)F)cc45)C3)C2)ccc2[nH]c(C#N)cc12 (single isomer, unassigned) [Example 30b, 4-methyl-5-((7-(6-(2,2,2-trifluoroethyl)thieno[2,3-d]pyrimidin-4-yl)-2,7-diazaspiro[4.4]nonan-2-yl)methyl)-1H-indole-2-carbonitrile] | < 100
5 | FC(F)(F)Cc1ccc2nccc(N3CCC4(CC3)CN(CC3CC3)C4)c2c1 [Example 87, 4-(2-(cyclopropylmethyl)-2,7-diazaspiro[3.5]nonan-7-yl)-6-(2,2,2-trifluoroethyl)quinoline] | ≥ 1000
6 | FC(F)(F)Cc1cc2c(N3CCC4(CCN(C[C@H]5CC[C@H](C(F)(F)F)CC5)C4)C3)ncnc2s1 (stereo partly drawn) [Example 37, 6-(2,2,2-Trifluoroethyl)-4-(7-(((1r,4r)-4-(trifluoromethyl)cyclohexyl)methyl)-2,7-diazaspiro[4.4]nonan-2-yl)thieno[2,3-d]pyrimidine] | 100 to 1000
7 | FC(F)(F)Cc1cc2c(N3CCC4(CC3)CN(CC3CCCCO3)C4)ncnc2s1 (stereo not drawn) [Example 6, 4-(2-((tetrahydro-2H-pyran-2-yl)methyl)-2,7-diazaspiro[3.5]nonan-7-yl)-6-(2,2,2-trifluoroethyl)thieno[2,3-d]pyrimidine] | ≥ 1000
8 | Cc1c(CN2CCC3(CCN(c4ncnc5sc(CC(F)(F)F)nc45)C3)C2)ccc2[nH]c(C#N)cc12 (stereo not drawn) [Example 83, 4-methyl-5-((7-(2-(2,2,2-trifluoroethyl)thiazolo[5,4-d]pyrimidin-7-yl)-2,7-diazaspiro[4.4]nonan-2-yl)methyl)-1H-indole-2-carbonitrile] | < 100
9 | FC(F)(F)Cc1cc2c(N3CC4(CN(CC5COC5)C4)C3)ncnc2s1 [Example 73, 4-(6-(oxetan-3-ylmethyl)-2,6-diazaspiro[3.3]heptan-2-yl)-6-(2,2,2-trifluoroethyl)thieno[2,3-d]pyrimidine] | ≥ 1000
10 | CC(C)(N)CC(=O)N1CC2(C1)CN(c1ncnc3sc(CC(F)(F)F)cc13)C2 [Example 77, 3-amino-3-methyl-1-(6-(6-(2,2,2-trifluoroethyl)thieno[2,3-d]pyrimidin-4-yl)-2,6-diazaspiro[3.3]heptan-2-yl)butan-1-one] | 100 to 1000
11 | FC(F)(F)Cc1nc2c(N3CCC4(CCN(Cc5ccccc5)C4)C3)ncnc2s1 (stereo not drawn) [Example 82, 7-(7-benzyl-2,7-diazaspiro[4.4]nonan-2-yl)-2-(2,2,2-trifluoroethyl)thiazolo[5,4-d]pyrimidine] | 100 to 1000
12 | Cc1c(CN2CC[C@@]3(CCN(c4ccnc5ccc(CC(F)(F)F)cc45)C3)C2)ccc2[nH]c(C#N)cc12 (single isomer, unassigned) [Example 86a, 4-methyl-5-((7-(6-(2,2,2-trifluoroethyl)quinolin-4-yl)-2,7-diazaspiro[4.4]nonan-2-yl)methyl)-1H-indole-2-carbonitrile] | 100 to 1000
13 | O=C1N(Cc2ccccc2)CCC12CCN(c1ncnc3sc(CC(F)(F)F)cc13)C2 (stereo not drawn) [Example 59, 2-benzyl-7-(6-(2,2,2-trifluoroethyl)thieno[2,3-d]pyrimidin-4-yl)-2,7-diazaspiro[4.4]nonan-1-one] | ≥ 1000
14 | FC(F)(F)Cc1cc2c(N3CC4(CN(CC5CC(F)(F)C5)C4)C3)ncnc2s1 [Example 74, 4-(6-((3,3-difluorocyclobutyl)methyl)-2,6-diazaspiro[3.3]heptan-2-yl)-6-(2,2,2-trifluoroethyl)thieno[2,3-d]pyrimidine] | ≥ 1000
15 | CC(C)(F)CN1CC2(CCN(c3ncnc4sc(CC(F)(F)F)cc34)CC2)C1 [Example 16, 4-(2-(2-fluoro-2-methylpropyl)-2,7-diazaspiro[3.5]nonan-7-yl)-6-(2,2,2-trifluoroethyl)thieno[2,3-d]pyrimidine] | ≥ 1000

Now from value to compound:

Row | IC50 [nM] | SMILES
16 | ≥ 1000 | FC(F)(F)Cc1cc2c(N3CC4(CCN(Cc5ccccc5)C4)C3)ncnc2s1 [Example 95, 4-(6-benzyl-2,6-diazaspiro[3.4]octan-2-yl)-6-(2,2,2-trifluoroethyl)thieno[2,3-d]pyrimidine]
17 | ≥ 1000 | CC(C)N1CC2(CCN(c3ncnc4sc(CC(F)(F)F)nc34)CC2)C1 [Example 80, 7-(2-isopropyl-2,7-diazaspiro[3.5]nonan-7-yl)-2-(2,2,2-trifluoroethyl)thiazolo[5,4-d]pyrimidine]
18 | 100 to 1000 | CCS(=O)(=O)N[C@H]1CC[C@H](CN2CC3(C2)CN(c2ncnc4sc(CC(F)(F)F)cc24)C3)CC1 [Example 71, N-((1r,4r)-4-((6-(6-(2,2,2-trifluoroethyl)thieno[2,3-d]pyrimidin-4-yl)-2,6-diazaspiro[3.3]heptan-2-yl)methyl)cyclohexyl)ethanesulfonamide]
19 | 100 to 1000 | Cc1c(CN2CC3(C2)CN(c2ncnc4sc(CC(F)(F)F)cc24)C3)ccc2[nH]c(C#N)cc12 [Example 67, 4-methyl-5-((6-(6-(2,2,2-trifluoroethyl)thieno[2,3-d]pyrimidin-4-yl)-2,6-diazaspiro[3.3]heptan-2-yl)methyl)-1H-indole-2-carbonitrile]
20 | 100 to 1000 | FC(F)(F)Cc1cc2c(N3CCC4(CN(Cc5ccccc5)C4)C3)ncnc2s1 [Example 111, 4-(2-benzyl-2,6-diazaspiro[3.4]octan-6-yl)-6-(2,2,2-trifluoroethyl)thieno[2,3-d]pyrimidine]
21 | < 100 | CS(=O)(=O)Nc1ccc(CN2CCC3(CCN(c4ncnc5sc(CC(F)(F)F)nc45)C3)C2)cc1 (stereo not drawn) [Example 84, N-(4-((7-(2-(2,2,2-trifluoroethyl)thiazolo[5,4-d]pyrimidin-7-yl)-2,7-diazaspiro[4.4]nonan-2-yl)methyl)phenyl)methanesulfonamide]
22 | ≥ 1000 | CC(C)CN1CC2(CCN(c3ccnc4ccc(CC(F)(F)F)cc34)CC2)C1 [Example 85, 4-(2-isobutyl-2,7-diazaspiro[3.5]nonan-7-yl)-6-(2,2,2-trifluoroethyl)quinoline]
23 | ≥ 1000 | COC1CC(CN2CC3(CCN(c4ncnc5sc(CC(F)(F)F)cc45)CC3)C2)C1 (stereo not drawn) [Example 13]
24 | ≥ 1000 | CC(C)CN1CC2(CCN(c3ncnc4ccc(CC(F)(F)F)cc34)CC2)C1 [Example 89, 4-(2-isobutyl-2,7-diazaspiro[3.5]nonan-7-yl)-6-(2,2,2-trifluoroethyl) quinazoline]
25 | ≥ 1000 | FC(F)(F)Cc1cc2c(N3CCC4(CC3)CN(CC3CCCO3)C4)ncnc2s1 (stereo not drawn) [Example 4, 4-(2-((tetrahydrofuran-2-yl)methyl)-2,7-diazaspiro[3.5]nonan-7-yl)-6-(2,2,2-trifluoroethyl)thieno[2,3-d]pyrimidine]
26 | 100 to 1000 | FC(F)(F)Cc1cc2c(N3CCC4(CC3)CN(CC3CCC(F)(F)CC3)C4)ncnc2s1 [Example 12, 4-(2((4,4-difluorocyclohexyl)methyl)-2,7-diazaspiro[3.5]nonan-7-yl)-6-(2,2,2-trifluoroethyl)thieno[2,3-d]pyrimidine]
27 | 100 to 1000 | FC(F)(F)Cc1cc2c(N3CCC4(CC3)CN(CC3CCCC(F)(F)C3)C4)ncnc2s1 (stereo not drawn) [Example 11, 4-(2-((3,3-difluorocyclohexyl)methyl)-2,7-diazaspiro[3.5]nonan-7-yl)-6-(2,2,2-trifluoroethyl)thieno[2,3-d]pyrimidine]
